Test: xn = mol fraction of the nth substance listed
Settings: 101.3 kPa

Nc1ccccc1 + CCCCCCCCn1cc[n+](C)c1.F[B-](F)(F)F
x2 = 0
Settings	speed of sound [m/s]
293.15 K	1657
298.15 K	1638
303.15 K	1618
308.15 K	1599
318.15 K	1561
323.15 K	1542

Nc1ccccc1 + CCCCCC[n+]1ccn(C)c1.F[B-](F)(F)F
x2 = 0
Settings	speed of sound [m/s]
293.15 K	1657
298.15 K	1638
303.15 K	1618
308.15 K	1599

Nc1ccccc1 + CCCC[n+]1ccn(C)c1.F[B-](F)(F)F
speed of sound [m/s]
Settings	x2 = 0	x2 = 0.0925	x2 = 0.2022	x2 = 0.2995	x2 = 0.4002	x2 = 0.4982	x2 = 0.5953	x2 = 0.6935	x2 = 0.7904	x2 = 0.9191
293.15 K	–	1656	–	1645	1634	–	1613	1603	–	1583
298.15 K	1638	–	1636	1630	1619	–	1600	1590	1581	1571
303.15 K	–	1623	1619	1614	1604	1595	1587	–	–	–
308.15 K	1599	1606	1603	–	1590	–	1573	1565	1557	1548
313.15 K	–	1588	1587	1582	–	1568	1560	1553	1546	1537
318.15 K	1561	1570	1571	1566	1561	–	1548	–	1534	1526
323.15 K	–	1553	1555	–	–	1541	–	1529	1523	1516

CCCCCCCCn1cc[n+](C)c1.F[B-](F)(F)F + Nc1ccccc1
speed of sound [m/s]
Settings	x1 = 0.0996	x1 = 0.1904	x1 = 0.2853	x1 = 0.3789	x1 = 0.4955	x1 = 0.5783	x1 = 0.6966	x1 = 0.7938	x1 = 0.8958
293.15 K	1640	1619	1595	1574	1553	1540	1526	1516	–
298.15 K	–	–	1580	1560	1539	1526	1512	–	1494
303.15 K	–	–	1564	1545	1525	1513	1499	1488	–
308.15 K	1589	–	1549	1530	1511	–	1485	1476	1467
313.15 K	–	1554	1534	–	1496	1485	1472	1463	1454
318.15 K	1554	1538	1518	–	1483	1472	1459	1450	1441
323.15 K	–	–	1502	1486	1469	1458	1446	–	1429

CCCCCC[n+]1ccn(C)c1.F[B-](F)(F)F + Nc1ccccc1
speed of sound [m/s]
Settings	x1 = 0.0989	x1 = 0.1792	x1 = 0.2896	x1 = 0.3924	x1 = 0.5062	x1 = 0.6042	x1 = 0.6986	x1 = 0.7974	x1 = 0.8962
293.15 K	1653	–	1618	1598	1579	1565	–	–	1539
298.15 K	1636	1623	1603	1583	–	–	1541	1532	1526
303.15 K	–	1606	1586	1568	1550	1537	–	1520	1513
308.15 K	1601	1589	1571	1553	1536	1524	1515	1507	1501
313.15 K	–	1572	1555	1539	1522	1510	1502	1494	1489
318.15 K	1565	1556	1540	1525	1509	–	–	1482	1476
323.15 K	1547	–	1525	–	1496	1485	1477	1470	1464

Reference: a compilation of properties of binary mixtures (doi:10.1021/acs.jced.0c00495)
